This passage reports Kb and melting point results from patent publication US10457644B2, “Pyrazol compounds as EAAT3 inhibitors” (Hoffmann-La Roche Inc., priority 2016, dated 2019).

Series [1] addresses T1, human EAAT3 (Homo sapiens, UniProt P43005).
T1 construct: expressed in transfected cells
T1 sequence (P43005 1-524): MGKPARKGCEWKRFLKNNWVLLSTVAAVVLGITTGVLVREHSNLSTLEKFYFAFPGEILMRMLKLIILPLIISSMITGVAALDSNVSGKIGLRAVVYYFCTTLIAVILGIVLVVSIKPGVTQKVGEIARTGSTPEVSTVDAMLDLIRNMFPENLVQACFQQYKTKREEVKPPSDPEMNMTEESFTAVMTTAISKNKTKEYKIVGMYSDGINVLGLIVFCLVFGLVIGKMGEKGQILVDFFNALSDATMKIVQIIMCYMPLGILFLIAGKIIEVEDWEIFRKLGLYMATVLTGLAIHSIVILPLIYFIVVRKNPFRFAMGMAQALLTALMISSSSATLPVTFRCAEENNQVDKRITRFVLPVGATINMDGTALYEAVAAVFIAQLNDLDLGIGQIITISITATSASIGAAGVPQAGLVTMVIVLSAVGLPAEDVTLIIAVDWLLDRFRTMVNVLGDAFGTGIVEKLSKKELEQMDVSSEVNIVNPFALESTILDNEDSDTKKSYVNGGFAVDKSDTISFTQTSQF
Put plainly: FLIPR Membrane Potential (FMP) assay. The conditions noted are these: HEK-293 cells stably expressing human EAAT3; L-glutamate as agonist at 80% of maximum response; antagonist applied 15 min before; Kb by Cheng-Prusoff from IC50. In kind it is cell-based. Here is the method:
The FLIPR Membrane Potential (FMP) Assay
HEK-293 cells stably expressing human EAAT3 were seeded at 55 000 cells/well in growth medium (DMEM glutamate free (Invitrogen 11960-044), 1% Pen Strep (10 ml/l GIBCO BRL N^o 15140-023), 10% FCS non dialysed heat inactivated, 5 mg/l puromycin) in poly-D-lysine treated 96-well black microtiter plates with clear-bottom. After 24 h, the growth medium was removed and 100 μl/well of Krebs buffer (140 mM NaCl, 4.7 mM KCl, 2.5 mM CaCl2, 1.2 mM MgCl2, 11 mM HEPES, 10 mM D-glucose, pH=7.4) added. The cells were then loaded by adding 100 μl/well FMP assay dye (FLIPR Membrane Potential assay reagent, Molecular Devices). The 96-well plates were then incubated at 37° C. for 1 h. The depolarization of the cells will cause more dye to enter in the cells, where it will bind to intracellular proteins and lipids and cause an increase in the fluorescence signal. Antagonist potency at human EAAT3 was determined by using L-glutamate as agonist at a concentration which gives 80% of the maximum response. The antagonists were applied 15 min before the application of the agonist L-glutamate. The assays were performed at room temperature and measurements done by using a Fluorometric Imaging Plate Reader (FLIPR, Molecular Devices) and filter #2. Responses were measured as peak increase in fluorescence minus basal (i.e. fluorescence without addition of L-glutamate). Kb was determined using the Cheng-Prusoff equation Kb=IC50/[1+(A/EC50)], where IC50 is the concentration of the antagonist producing 50% inhibition, A is the concentration of the agonist against which the IC50 is being determined ([…]) and EC50 is the concentration of the agonist producing […].

A word on the Kb: it is the equilibrium dissociation constant of an antagonist, usually derived from a functional assay. A low value points to a more potent antagonist. As a reminder, the melting point is the temperature, or range, at which the solid turns liquid.

The compound `CC(C)(C)NC(=O)c1cc(-c2ccccc2)cc(-c2ccnn2C(C)(C)C)c1` [Example 28, N-tert-Butyl-3-(2-tert-butyl-pyrazol-3-yl)-5-phenyl-benzamide] returned a melting point of 199.5 °C. The same compound registered a Kb in series [1] of 470 nM.
`Cc1ccc(-c2cc(C(=O)NC(C)(C)C)cc(-c3ccnn3C(C)(C)C)c2)cc1F` [Example 29, N-tert-Butyl-3-(2-tert-butyl-pyrazol-3-yl)-5-(3-fluoro-4-methyl-phenyl)-benzamide] displayed a melting point of 202 °C. In series [1], this compound yielded a Kb of 390 nM.
For `Cc1ccc(-c2cc(C(=O)NC(C)(C)C)cc(-c3ccnn3C(C)(C)C)c2)cc1` [Example 30, N-tert-Butyl-3-(2-tert-butyl-pyrazol-3-yl)-5-(4-methyl-phenyl)-benzamide], in that order: 193 °C and 370 nM.
For `COc1ccc(-c2cc(C(=O)NC(C)(C)C)cc(-c3ccnn3C(C)(C)C)c2)cc1` [Example 31, N-tert-Butyl-3-(2-tert-butyl-pyrazol-3-yl)-5-(4-methoxy-phenyl)-benzamide] the same measures were 173 °C and 250 nM.
For `CC(C)(C)NC(=O)c1cc(-c2ccc(F)c(Cl)c2)cc(-c2ccnn2C(C)(C)C)c1` [Example 32, N-tert-Butyl-3-(2-tert-butyl-pyrazol-3-yl)-5-(3-chloro-4-fluoro-phenyl)-benzamide], in that order: 175 °C and 410 nM.
Compound `CC(C)(C)NC(=O)c1cc(-c2ccc(Cl)c(F)c2)cc(-c2ccnn2C(C)(C)C)c1` [Example 33, N-tert-Butyl-3-(2-tert-butyl-pyrazol-3-yl)-5-(4-chloro-3-fluoro-phenyl)-benzamide] had a melting point of 225 °C. The compound further came in with a Kb in series [1] of 290 nM.
For `CC(C)c1ccc(-c2cc(C(=O)NC(C)(C)C)cc(-c3ccnn3C(C)(C)C)c2)cc1` [Example 34, N-tert-Butyl-3-(2-tert-butyl-pyrazol-3-yl)-5-(4-propan-2-yl-phenyl)-benzamide] the same measures were 209.5 °C and 600 nM.
`CC(C)(NC(=O)c1cc(-c2ccc(Cl)cc2)cc(-c2ccnn2C(C)(C)C)c1)C1CC1` [Example 35, 3-(2-tert-Butyl-pyrazol-3-yl)-5-(4-chlorophenyl)-N-(2-cyclopropyl-propan-2-yl)-benzamide] gave a melting point of 166 °C. In series [1], this compound yielded a Kb of 920 nM.
For `CC(C)(C)NC(=O)c1cc(-c2ccc(F)c(F)c2)cc(-c2ccnn2C(C)(C)C)c1` [Example 36, N-tert-Butyl-3-(2-tert-butyl-pyrazol-3-yl)-5-(3,4-difluorophenyl)-benzamide] the same measures were 197.5 °C and 440 nM.
`CC(C)(C)NC(=O)c1cc(-c2ccc(C3CC3)cc2)cc(-c2ccnn2C(C)(C)C)c1` [Example 37, N-tert-Butyl-3-(2-tert-butyl-pyrazol-3-yl)-5-(4-cyclopropyl-phenyl)-benzamide] yielded a melting point of 198.5 °C. For the same compound, the Kb in series [1] amounted to 1130 nM.
For `CC(C)(C)NC(=O)c1cc(-c2ccc(C#N)cc2)cc(-c2ccnn2C(C)(C)C)c1` [Example 38, N-tert-Butyl-3-(2-tert-butyl-pyrazol-3-yl)-5-(4-cyano-phenyl)-benzamide], in that order: 201.5 °C and 240 nM.
For `CC(C)n1nccc1-c1cc(C(=O)NC(C)(C)CO)cc(-c2ccc(Cl)cc2)c1` [Example 39, 3-(4-Chlorophenyl)-N-(1-hydroxy-2-methyl-propan-2-yl)-5-(2-propan-2-yl-pyrazol-3-yl)-benzamide] the same measures were 80.5 °C and 270 nM.
For `CC(C)n1nccc1-c1cc(C(=O)NC(C)(C)C(F)(F)F)cc(-c2ccc(Cl)cc2)c1` [Example 40, 3-(4-Chlorophenyl)-5-(2-propan-2-yl-pyrazol-3-yl)-N-(1,1,1-trifluoro-2-methyl-propan-2-yl)-benzamide] the same measures were 77.5 °C and 620 nM.
Compound `CC(C)(CO)NC(=O)c1cc(-c2ccc(Cl)cc2)cc(-c2ccnn2C(C)(C)C)c1` [Example 41, 3-(2-tert-Butyl-pyrazol-3-yl)-5-(4-chlorophenyl)-N-(1-hydroxy-2-methylpropan-2-yl)-benzamide] yielded a melting point of 83 °C. Further, the Kb in series [1] turned out to be 260 nM.
For `CC(C)(C)n1nccc1-c1cc(C(=O)NC(C)(C)C(F)(F)F)cc(-c2ccc(Cl)cc2)c1` [Example 42, 3-(2-tert-Butylpyrazol-3-yl)-5-(4-chlorophenyl)-N-(1,1,1-trifluoro-2-methyl-propan-2-yl)-benzamide], in that order: 81 °C and 890 nM.
Regarding `CC(C)(C)NC(=O)c1cc(-c2ccc(C(F)(F)F)cc2)cc(-c2ccnn2C2CC2)c1` [Example 43, N-tert-Butyl-3-(2-cyclopropyl-pyrazol-3-yl)-5-[4-(trifluoromethyl)-phenyl]-benzamide], the melting point is 72 °C. This compound had an antagonist dissociation constant (Kb) in series [1] of 320 nM.
For `CC(C)(C)NC(=O)c1cc(-c2ccc(C(F)(F)F)cc2)cc(-c2ccnn2CC2CC2)c1` [Example 44, N-tert-Butyl-3-[2-(cyclopropylmethyl)-pyrazol-3-yl]-5-[4-(trifluoromethyl)-phenyl]-benzamide] the same measures were 69 °C and 400 nM.
For `CC(C)(C)NC(=O)c1cc(-c2ccc(Cl)cc2)cc(-c2ccnn2C2CC2)c1` [Example 45, N-tert-Butyl-3-(4-chlorophenyl)-5-(2-cyclopropyl-pyrazol-3-yl)-benzamide] the same measures were 72 °C and 260 nM.
For `CC(C)(C)NC(=O)c1cc(-c2ccc(F)cc2)cc(-c2ccnn2CC2CC2)c1` [Example 46, N-tert-Butyl-3-[2-(cyclopropylmethyl)-pyrazol-3-yl]-5-(4-fluorophenyl)-benzamide], in that order: 188 °C and 280 nM.
Regarding `CCn1nccc1-c1cc(C(=O)NC(C)(C)C)cc(-c2ccc(F)cc2)c1` [Example 47, N-tert-Butyl-3-(2-ethyl-pyrazol-3-yl)-5-(4-fluorophenyl)-benzamide], the melting point is 162 °C. The compound also returned a Kb in series [1] of 110 nM.
For `CCn1nccc1-c1cc(C(=O)NC(C)(C)C)cc(-c2ccc(C(F)(F)F)cc2)c1` [Example 48, N-tert-Butyl-3-(2-ethyl-pyrazol-3-yl)-5-[4-(trifluoromethyl)-phenyl]-benzamide] the same measures were 70 °C and 290 nM.
